Measured values as given in ChEMBL document CHEMBL1201861, “Genomics of Drug Sensitity in Cancer screening data, Wellcome Trust Sanger Institute”.

Legend:
YT = experiment: cells; assay type: functional, cell-based; details: Homo sapiens
Description: SANGER: Inhibition of human YT cell growth in a cell viability assay.

K5 = experiment: cells; assay type: functional, cell-based, Homo sapiens; details: Homo sapiens, K5
KGN = experiment: cells; assay type: functional, cell-based, Homo sapiens; details: Homo sapiens, KGN;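 further: growth inhibition of KGN cells, read out with a cell viability assay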
Description: SANGER: Inhibition of human KGN cell growth in a cell viability assay.

KARPAS-299 = experiment: cells; assay type: functional, cell-based; details: Homo sapiens
Description: SANGER: Inhibition of human KARPAS-299 cell growth in a cell viability assay.

OPM-2 = experiment: cells; assay type: functional, cell-based; details: Homo sapiens;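 further: growth of OPM-2 cells measured with a viability assay, IC50 for suppression of proliferation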
Description: SANGER: Inhibition of human OPM-2 cell growth in a cell viability assay.

THP-1 = experiment: cells; assay type: functional, cell-based; details: Homo sapiens;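 further: growth inhibition of THP-1 cells, read out via a cell viability assay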
Description: SANGER: Inhibition of human THP-1 cell growth in a cell viability assay.

8-MG-BA = experiment: cells; assay type: functional, cell-based, Homo sapiens; details: Homo sapiens, 8-MG-BA;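 further: growth inhibition of 8-MG-BA cells, read out with a cell viability assay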
Description: SANGER: Inhibition of human 8-MG-BA cell growth in a cell viability assay.

RL = experiment: cells; assay type: functional, cell-based; details: Homo sapiens
Description: SANGER: Inhibition of human RL cell growth in a cell viability assay.

CESS = experiment: SANGER: Inhibition of human CESS cell growth in a cell viability assay.; assay type: functional, cell-based
Raji = experiment: cells; assay type: functional, cell-based; details: Homo sapiens;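 further: cell viability assay measuring inhibition of Raji cell growth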
Description: SANGER: Inhibition of human Raji cell growth in a cell viability assay.

SK-MM-2 = experiment: cells; assay type: functional, cell-based; details: Homo sapiens;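 further: growth inhibition of human SK-MM-2 cells, read out with a cell viability assay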
Description: SANGER: Inhibition of human SK-MM-2 cell growth in a cell viability assay.

NALM-6 = experiment: cells; assay type: functional, cell-based; details: Homo sapiens;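 further: growth inhibition of NALM-6 cells, read out with a cell viability assay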
Description: SANGER: Inhibition of human NALM-6 cell growth in a cell viability assay.

MHH-CALL-2 = experiment: cells; assay type: functional, cell-based; details: Homo sapiens;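 further: growth inhibition of the cell line, read out in a cell viability assay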
Description: SANGER: Inhibition of human MHH-CALL-2 cell growth in a cell viability assay.

LU-165 = experiment: cells; assay type: functional, cell-based; details: Homo sapiens
Description: SANGER: Inhibition of human LU-165 cell growth in a cell viability assay.

WSU-NHL = experiment: cells; assay type: functional, cell-based; details: Homo sapiens;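 further: growth inhibition of human WSU-NHL cells, read out with a cell viability assay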
Description: SANGER: Inhibition of human WSU-NHL cell growth in a cell viability assay.

ECC4 = experiment: cells; assay type: functional, cell-based; details: Homo sapiens;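 further: growth inhibition of ECC4 cells, read out with a cell viability assay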
Description: SANGER: Inhibition of human ECC4 cell growth in a cell viability assay.

NCI-H187 = experiment: cells; assay type: functional, cell-based; details: Homo sapiens;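 further: growth inhibition of NCI-H187 cells, read out as cell viability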
Description: SANGER: Inhibition of human NCI-H187 cell growth in a cell viability assay.

NCI-H2227 = experiment: cells; assay type: functional, cell-based; details: Homo sapiens;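 further: growth inhibition of the human cell line, read out with a cell viability assay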
Description: SANGER: Inhibition of human NCI-H2227 cell growth in a cell viability assay.

NCI-H345 = experiment: cells; assay type: functional, cell-based; details: Homo sapiens;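 further: growth inhibition of NCI-H345 cells measured with a cell viability assay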
Description: SANGER: Inhibition of human NCI-H345 cell growth in a cell viability assay.

NCI-H2141 = experiment: cells; assay type: functional, cell-based; details: Homo sapiens;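 further: growth inhibition of human NCI-H2141 cells, read out with a cell viability assay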
Description: SANGER: Inhibition of human NCI-H2141 cell growth in a cell viability assay.

NCI-H716 = experiment: cells; assay type: functional, cell-based; details: Homo sapiens;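 further: growth inhibition of human NCI-H716 cells, measured by a cell viability assay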
Description: SANGER: Inhibition of human NCI-H716 cell growth in a cell viability assay.

SNU-C1 = experiment: cells; assay type: functional, cell-based; details: Homo sapiens;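 further: growth inhibition of SNU-C1 human cells, read out by a cell viability assay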
Description: SANGER: Inhibition of human SNU-C1 cell growth in a cell viability assay.

OS-RC-2 = experiment: cells; assay type: functional, cell-based, Homo sapiens; details: Homo sapiens, OS-RC-2;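 further: growth inhibition of human OS-RC-2 cells, measured by a cell viability assay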
Description: SANGER: Inhibition of human OS-RC-2 cell growth in a cell viability assay.

GDM-1 = experiment: cells; assay type: functional, cell-based; details: Homo sapiens;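 further: cell viability readout used to measure growth inhibition of human GDM-1 cells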
Description: SANGER: Inhibition of human GDM-1 cell growth in a cell viability assay.

MONO-MAC-6 = experiment: cells; assay type: functional, cell-based; details: Homo sapiens;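 further: cell viability assay measuring growth inhibition of human MONO-MAC-6 cells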
Description: SANGER: Inhibition of human MONO-MAC-6 cell growth in a cell viability assay.

IM-9 = experiment: SANGER: Inhibition of human IM-9 cell growth in a cell viability assay.; assay type: functional, cell-based
P31-FUJ = experiment: cells; assay type: functional, cell-based; details: Homo sapiens;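 further: growth inhibition of P31-FUJ cells, read out with a viability assay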
Description: SANGER: Inhibition of human P31-FUJ cell growth in a cell viability assay.

CAS-1 = experiment: cells; assay type: functional, cell-based, Homo sapiens; details: Homo sapiens, CAS-1;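 further: growth inhibition of CAS-1 cells, measured with a cell viability assay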
NCI-H1963 = experiment: cells; assay type: functional, cell-based; details: Homo sapiens;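 further: cell growth inhibition of the human line, determined with a cell viability assay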
Description: SANGER: Inhibition of human NCI-H1963 cell growth in a cell viability assay.

NCI-H524 = experiment: cells; assay type: functional, cell-based; details: Homo sapiens;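 further: growth inhibition of human NCI-H524 cells, read out through a cell viability assay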
Description: SANGER: Inhibition of human NCI-H524 cell growth in a cell viability assay.

C8166 = experiment: cells; assay type: functional, cell-based; details: Homo sapiens;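 further: growth inhibition of human C8166 cells measured by a cell viability assay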
Description: SANGER: Inhibition of human C8166 cell growth in a cell viability assay.

K052 = experiment: cells; assay type: functional, cell-based; details: Homo sapiens;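 further: Read-out from a cell viability assay, IC50 reflecting suppression of K052 cell growth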
Description: SANGER: Inhibition of human K052 cell growth in a cell viability assay.

REH = experiment: cells; assay type: functional, cell-based; details: Homo sapiens;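 further: growth inhibition of REH cells determined with a cell viability read-out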
Description: SANGER: Inhibition of human REH cell growth in a cell viability assay.

U-698-M = experiment: cells; assay type: functional, cell-based; details: Homo sapiens
Description: SANGER: Inhibition of human U-698-M cell growth in a cell viability assay.

BC-3 = experiment: cells; assay type: functional, cell-based; details: Homo sapiens;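 further: cell viability assay measuring growth inhibition of human BC-3 cells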
Description: SANGER: Inhibition of human BC-3 cell growth in a cell viability assay.

EW-22 = experiment: cells; assay type: functional, cell-based; details: Homo sapiens;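 further: growth inhibition of the EW-22 cell line, measured with a cell viability readout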
Description: SANGER: Inhibition of human EW-22 cell growth in a cell viability assay.

SMILES | IC50 (YT) [nM] | IC50 (K5) [nM] | IC50 (KGN) [nM] | IC50 (KARPAS-299) [nM] | IC50 (OPM-2) [nM] | IC50 (THP-1) [nM] | IC50 (8-MG-BA) [nM] | IC50 (RL) [nM] | IC50 (CESS) [nM] | IC50 (Raji) [nM] | IC50 (SK-MM-2) [nM] | IC50 (NALM-6) [nM] | IC50 (MHH-CALL-2) [nM] | IC50 (LU-165) [nM] | IC50 (WSU-NHL) [nM] | IC50 (ECC4) [nM] | IC50 (NCI-H187) [nM] | IC50 (NCI-H345) [nM] | IC50 (NCI-H2141) [nM] | IC50 (NCI-H716) [nM] | also measured
CC1=C2C[C@H]3[C@@H](CC=C4C[C@@H](O)CC[C@@]43C)[C@@H]2CC[C@]12O[C@@H]1C[C@H](C)CN[C@H]1[C@H]2C [CYCLOPAMINE] | > 16000 | > 16000 | > 16000 | > 16000 | > 16000 | > 16000 | 13100 | > 16000 | > 16000 | > 16000 | > 16000 | > 16000 | > 16000 | > 16000 | > 16000 | > 16000 | > 16000 | > 16000 | > 16000 | > 16000 | IC50 (NCI-H2227): > 16000 nM; IC50 (SNU-C1): > 16000 nM; IC50 (OS-RC-2): 5870 nM; IC50 (GDM-1): > 16000 nM; IC50 (MONO-MAC-6): > 16000 nM; IC50 (IM-9): > 16000 nM; IC50 (P31-FUJ): > 16000 nM; IC50 (CAS-1): > 16000 nM; IC50 (NCI-H1963): > 16000 nM; IC50 (NCI-H524): > 16000 nM; IC50 (C8166): > 16000 nM; IC50 (K052): > 16000 nM; IC50 (REH): > 16000 nM; IC50 (U-698-M): > 16000 nM; IC50 (BC-3): > 16000 nM
CS(=O)(=O)CCNCc1ccc(-c2ccc3ncnc(Nc4ccc(OCc5cccc(F)c5)c(Cl)c4)c3c2)o1 [LAPATINIB] | > 2000 | > 2000 | > 2000 | > 2000 | > 2000 | > 2000 | > 2000 | > 2000 | > 2000 | > 2000 | > 2000 | > 2000 | > 2000 | > 2000 | > 2000 | > 2000 | > 2000 | > 2000 | > 2000 | > 2000 | IC50 (NCI-H2227): > 2000 nM; IC50 (SNU-C1): > 2000 nM; IC50 (OS-RC-2): 1990 nM; IC50 (GDM-1): > 2000 nM; IC50 (MONO-MAC-6): > 2000 nM; IC50 (IM-9): > 2000 nM; IC50 (P31-FUJ): > 2000 nM; IC50 (CAS-1): > 2000 nM; IC50 (NCI-H1963): > 2000 nM; IC50 (NCI-H524): > 2000 nM; IC50 (C8166): > 2000 nM; IC50 (REH): > 2000 nM; IC50 (U-698-M): > 2000 nM; IC50 (BC-3): > 2000 nM
O=C(/C=C/c1ccccc1)NC(NC(=S)Nc1cccc2cccnc12)C(Cl)(Cl)Cl (configuration not stated) [SALUBRINAL] | > 16000 | > 16000 | > 16000 | > 16000 | > 16000 | > 16000 | 11000 | > 16000 | 11700 | > 16000 | > 16000 | 13100 | > 16000 | > 16000 | > 16000 | > 16000 | > 16000 | > 16000 | > 16000 | > 16000 | IC50 (NCI-H2227): > 16000 nM; IC50 (SNU-C1): > 16000 nM; IC50 (OS-RC-2): > 16000 nM; IC50 (GDM-1): > 16000 nM; IC50 (MONO-MAC-6): 10500 nM; IC50 (IM-9): > 16000 nM; IC50 (P31-FUJ): > 16000 nM; IC50 (CAS-1): > 16000 nM; IC50 (NCI-H1963): > 16000 nM; IC50 (NCI-H524): > 16000 nM; IC50 (C8166): > 16000 nM; IC50 (K052): > 16000 nM; IC50 (REH): > 16000 nM; IC50 (U-698-M): > 16000 nM; IC50 (BC-3): 14800 nM
CN1CCN(CCOc2cc(OC3CCOCC3)c3c(Nc4c(Cl)ccc5c4OCO5)ncnc3c2)CC1 [SARACATINIB] | > 2000 | > 2000 | 1280 | > 2000 | > 2000 | > 2000 | > 2000 | > 2000 | > 2000 | > 2000 | > 2000 | > 2000 | > 2000 | > 2000 | > 2000 | > 2000 | > 2000 | > 2000 | > 2000 | > 2000 | IC50 (SNU-C1): > 2000 nM; IC50 (OS-RC-2): 1890 nM; IC50 (GDM-1): > 2000 nM; IC50 (MONO-MAC-6): > 2000 nM; IC50 (IM-9): > 2000 nM; IC50 (P31-FUJ): > 2000 nM; IC50 (CAS-1): > 2000 nM; IC50 (NCI-H1963): > 2000 nM; IC50 (NCI-H524): > 2000 nM; IC50 (C8166): > 2000 nM; IC50 (K052): > 2000 nM; IC50 (REH): > 2000 nM; IC50 (U-698-M): > 2000 nM; IC50 (EW-22): > 2000 nM; IC50 (BC-3): > 2000 nM
CO[C@H]1C[C@@H]2CC[C@@H](C)[C@@](O)(O2)C(=O)C(=O)N2CCCC[C@H]2C(=O)O[C@H]([C@H](C)C[C@@H]2CC[C@@H](O)[C@H](OC)C2)CC(=O)[C@H](C)/C=C(\C)[C@@H](O)[C@@H](OC)C(=O)[C@H](C)C[C@H](C)/C=C/C=C/C=C/1C [SIROLIMUS] | > 100 | > 100 | 96.3 | 61.8 | 4.15 | > 100 | > 100 | > 100 | 13.1 | 89.7 | > 100 | > 100 | > 100 | > 100 | > 100 | 44.8 | > 100 | > 100 | > 100 | > 100 | IC50 (SNU-C1): > 100 nM; IC50 (OS-RC-2): 0.652 nM; IC50 (GDM-1): > 100 nM; IC50 (MONO-MAC-6): > 100 nM; IC50 (IM-9): > 100 nM; IC50 (P31-FUJ): > 100 nM; IC50 (CAS-1): > 100 nM; IC50 (NCI-H1963): > 100 nM; IC50 (NCI-H524): > 100 nM; IC50 (C8166): > 100 nM; IC50 (K052): > 100 nM; IC50 (REH): > 100 nM; IC50 (U-698-M): > 100 nM; IC50 (EW-22): > 100 nM; IC50 (BC-3): 99.2 nM
CCC(=O)N1CCN(c2ccc(-n3c(=O)ccc4cnc5ccc(-c6cnc7ccccc7c6)cc5c43)cc2C(F)(F)F)CC1 [TORIN1] | > 1200 | 64 | 13.6 | 122 | 12.9 | > 1200 | 46.3 | > 1200 | 31 | > 1200 | 107 | 11 | 335 | > 1200 | > 1200 | 1190 | 478 | > 1200 | 1190 | > 1200 | IC50 (SNU-C1): 382 nM; IC50 (OS-RC-2): 23.2 nM; IC50 (GDM-1): 372 nM; IC50 (MONO-MAC-6): 72.1 nM; IC50 (IM-9): > 1200 nM; IC50 (P31-FUJ): > 1200 nM; IC50 (CAS-1): > 1200 nM; IC50 (NCI-H1963): 626 nM; IC50 (NCI-H524): 587 nM; IC50 (C8166): > 1200 nM; IC50 (K052): 119 nM; IC50 (REH): > 1200 nM; IC50 (U-698-M): > 1200 nM; IC50 (BC-3): 82 nM
Cc1cc(Nc2cc(N3CCN(C)CC3)nc(Sc3ccc(NC(=O)C4CC4)cc3)n2)n[nH]1 [TOZASERTIB] | > 2000 | > 2000 | 900 | > 2000 | > 2000 | > 2000 | > 2000 | > 2000 | 313 | > 2000 | > 2000 | 25.5 | > 2000 | > 2000 | > 2000 | > 2000 | 641 | > 2000 | > 2000 | > 2000 | IC50 (SNU-C1): > 2000 nM; IC50 (OS-RC-2): > 2000 nM; IC50 (GDM-1): > 2000 nM; IC50 (MONO-MAC-6): 78.8 nM; IC50 (IM-9): > 2000 nM; IC50 (P31-FUJ): > 2000 nM; IC50 (CAS-1): > 2000 nM; IC50 (NCI-H1963): 1710 nM; IC50 (NCI-H524): 511 nM; IC50 (C8166): > 2000 nM; IC50 (K052): 195 nM; IC50 (REH): > 2000 nM; IC50 (U-698-M): > 2000 nM; IC50 (BC-3): > 2000 nM
